System: panel of cancer cell lines
Experiment: Cell viability (CellTiter-Glo) dose-response across cancer cell line panel;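 for EC50: after 72 h compound incubation with CellTiter-Glo ATP readout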
Format: cell-based, human
Details: for EC50: Homo sapiens
Description: Next, we explored the effect of CSN5 inhibition on the viability of cancer cells. To obtain a comprehensive picture, we generated dose–response curves with a CSN5 inhibitor across more than 500 cancer cell lines in a previously described standardized setting[47] (Supplementary Data 1).
A standardized CellTiter-Glo Assay (Promega #G7570) based on the quantification of ATP was applied according to the manufacturer's protocol to measure the amount of viable cells in culture. In brief, cells were seeded into 384-well plates at optimal density for each cell line. After 4 h, compounds were added at different concentrations in growth medium and incubated for another 72 h in a humidifying chamber at 37 °C and 5% CO2. […] EC50 values were calculated from the plot of percentage of inhibition versus inhibitor concentration using the nonlinear regression analysis software Origin 7.5SR6 (OriginLab Corp.).

SMILES: CC(C)C[C@H](NC(=O)[C@H](Cc1ccccc1)NC(=O)c1cnccn1)B(O)O [Bortezomib]
- AMAX (22Rv1): -94.313
- AMAX (59M): -95.8554
- AMAX (769-P): -95.8011
- AMAX (786-O): -95.6334
- AMAX (A4/Fuk): -96.8168
- AMAX (A101D): -96.1689
- AMAX (BV-173): -96.2276
- AMAX (CAL-54): -95.8702
- AMAX (CAL-78): -96.6244
- AMAX (CAS-1): -94.9696
- AMAX (CMK-11-5): -95.7224
- AMAX (CML-T1): -97.037
- AMAX (COLO 668): -97.3658
- AMAX (COR-L88): -87.7017
- AMAX (COR-L279): -96.4332
- AMAX (COV318): -92.9911
- AMAX (COV504): -89.7599
- AMAX (DK-MG): -95.0625
- AMAX (DMS 273): -96.4842
- AMAX (DOHH-2): -97.4407
- AMAX (EM-2): -96.8249
- AMAX (GCIY): -97.1531
- AMAX (GR-M): -97.3342
- AMAX (HEC-6): -96.6882
- AMAX (HEC-50B): -86.5583
- AMAX (HEC-151): -96.6048
- AMAX (HEC-265): -95.5903
- AMAX (HGC-27): -96.7322
- AMAX (HLC-1): -96.4119
- AMAX (HMC-1-8): -96.1255
- AMAX (HTK-): -96.3221
- EC50 (8-MG-BA, cell line 8-MG-BA): 18.9 nM
- EC50 (22Rv1, 22Rv1): 14.7 nM
- EC50 (59M): 13.5 nM
- EC50 697: 9 nM
- EC50 (769-P): 8.84 nM
- EC50 (786-0, 786-O): 8.79 nM
- EC50 (1321-N1, 1321N1): 12 nM
- EC50 (8305C): 7.18 nM
- EC50 (23132/87): 7.39 nM
- EC50 (A4/Fuk): 2.23 nM
- EC50 (A101D): 3.29 nM
- EC50 (A 172, A172): 8.05 nM
- EC50 (A204, A-204): 5.28 nM
- EC50 (A253, A-253): 9.94 nM
- EC50 (A549, A549): 30.8 nM
- EC50 (A673, A-673): 5.83 nM
- EC50 (A2058, A2058): 19.4 nM
- EC50 (A2780, A2780): 10.7 nM
- EC50 (A-375, A-375): 12.1 nM
- EC50 (ABC-1, ABC-1): 3.02 nM
- EC50 (ACC-MESO-1, ACC-MESO-1): 23.6 nM
- EC50 (ACHN): 7.43 nM
- EC50 (AMO1, AMO-1): 2.18 nM
- EC50 (AN3-CA, cell line AN3 CA): 15.5 nM
- EC50 (AU565, AU565): 6.2 nM
- EC50 (BFTC-909, BFTC-909): 20.9 nM
- EC50 (BHY): 7.83 nM
- EC50 (BICR 6): 18.4 nM
- EC50 (BICR 16): 38.8 nM
- EC50 (BICR 22): 12.3 nM
- EC50 (BL-41, BL-41): 1.54 nM
- EC50 (BT-20, BT-20): 26.8 nM
- EC50 (BT-549, BT-549): 5.76 nM
- EC50 (BV-173, BV-173): 8.13 nM
- EC50 (BXPC-3, BxPC-3): 15.1 nM
- EC50 (C32, C32): 13 nM
- EC50 (CAKI-1, Caki-1): 12 nM
- EC50 (CAKI-2, cell line Caki-2): 22.8 nM
- EC50 (CAL-29): 16.3 nM
- EC50 (CAL-51, CAL-51): 17.9 nM
- EC50 (CAL-54, CAL-54): 9.06 nM
- EC50 (CAL-78): 7.82 nM
- EC50 (CAL-120, CAL-120): 7.23 nM
- EC50 (CAMA-1, CAMA-1): 8.61 nM
- EC50 (CAPAN-1, Capan-1): 9.26 nM
- EC50 (CAS-1): 16.6 nM
- EC50 (CCK-81): 9.52 nM
- EC50 (CCRF-CEM): 3.12 nM
- EC50 (CFPAC-1, CFPAC-1): 6.34 nM
- EC50 (CHL-1, CHL-1): 9.51 nM
- EC50 (CHP-212, cell line CHP-212): 5.04 nM
- EC50 (CMK): 3.98 nM
- EC50 (CMK-11-5, CMK-11-5): 6.27 nM
- EC50 (CML-T1, CML-T1): 3.65 nM
- EC50 (COLO 205, COLO 205): 35.7 nM
- EC50 (COLO 320, COLO-320): 19 nM
- EC50 (COLO 699, COLO-699): 9.17 nM
- EC50 (COLO 704, COLO-704): 5.98 nM
- EC50 (COLO 775): 5.24 nM
- EC50 (COLO 792): 5.11 nM
- EC50 (COLO-668, COLO 668): 13.2 nM
- EC50 (COLO-680N): 12.3 nM
- EC50 (COLO-741, COLO 741): 11 nM
- EC50 (COLO-800, cell line COLO-800): 10.1 nM
- EC50 (COLO-829, COLO 829): 16.6 nM
- EC50 (COR-L23, cell line COR-L23): 17.8 nM
- EC50 (COR-L47, COR-L47): 9.05 nM
- EC50 (COR-L88, COR-L88): 29.3 nM
- EC50 (COR-L279, COR-L279): 7.34 nM
- EC50 (COV318, COV318): 6.86 nM
- EC50 (COV504, COV504): 7.72 nM
- EC50 (COV644): 6.9 nM
- EC50 (Calu-1, Calu-1): 17.6 nM
- EC50 (Calu-3, Calu-3): 4.34 nM
- EC50 (Calu-6, Calu-6): 17.8 nM
- EC50 (Caov-3, Caov-3): 7.49 nM
- EC50 (Ci-1, CI-1): 4.61 nM
- EC50 (DAN-G): 8.14 nM
- EC50 (DB): 3.38 nM
- EC50 (DBTRG-05MG, cell line DBTRG-05MG): 34.7 nM
- EC50 (DK-MG): 5.7 nM
- EC50 (DLD-1, DLD-1): 6.51 nM
- EC50 (DMS-79, cell line DMS 79): 13.6 nM
- EC50 (DMS-114, DMS 114): 14 nM
- EC50 (DMS-273, DMS 273): 6.64 nM
- EC50 (DOHH-2, DOHH-2): 4.61 nM
- EC50 (DU-145, DU 145): 17.5 nM
- EC50 (DU-4475, DU4475): 5.05 nM
- EC50 (DV-90, DV-90): 22.4 nM
- EC50 (Daoy): 6.56 nM
- EC50 (Detroit 562, cell line Detroit 562): 11.4 nM
- EC50 (EBC-1, EBC-1): 8.25 nM
- EC50 (EFM-19, EFM-19): 22.5 nM
- EC50 (EFM-192A): 25.5 nM
- EC50 (EM-2, EM-2): 1.63 nM
- EC50 (EN): 15 nM
- EC50 (EOL1, EOL-1): 6.8 nM
- EC50 (ES-2, ES-2): 10.4 nM
- EC50 (ESS-1, ESS-1): 8.62 nM
- EC50 (FU-OV-1): 12.5 nM
- EC50 (FaDu, cell line FaDu): 16.5 nM
- EC50 (G-361, G-361): 2.83 nM
- EC50 (G-401, G-401): 8.69 nM
- EC50 (G-402, G-402): 5.03 nM
- EC50 (GA-10, cell line GA-10): 15.5 nM
- EC50 (GAMG, cell line GAMG): 17.7 nM
- EC50 (GCIY): 6.77 nM
- EC50 (GMS-10, cell line GMS-10): 11.2 nM
- EC50 (GOS-3): 6.46 nM
- EC50 (GP2d): 14.7 nM
- EC50 (GR-M): 7.08 nM
- EC50 (Granta-519, GRANTA-519): 3.79 nM
- EC50 (HARA): 11.9 nM
- EC50 (HCC15, HCC-15): 23.1 nM
- EC50 (HCC38, HCC38): 3.99 nM
- EC50 (HCC44, HCC-44): 19.7 nM
- EC50 (HCC70, HCC70): 7.14 nM
- EC50 (HCC95, HCC-95): 14.1 nM
- EC50 (HCC366, HCC-366): 11.1 nM
- EC50 (HCC827, HCC827): 8.42 nM
- EC50 (HCC1143, HCC1143): 15.1 nM
- EC50 (HCC1171, HCC-1171): 27.1 nM
- EC50 (HCC1187, HCC1187): 6.22 nM
- EC50 (HCC1395, HCC1395): 17.5 nM
- EC50 (HCC1419, HCC1419): 28.6 nM
- EC50 (HCC1428, HCC1428): 396 nM

From PMC5078989, “Targeted inhibition of the COP9 signalosome for treatment of cancer” (Nature Communications, 2016)
